Series [1] is described as follows: Cytotoxicity against human HEK293T cells assessed as reduction in cell viability measured after 3 days by CellTiterGlo Luminescent assay. Format: toxicity, cell-based, HEK-293T. The settings on record: time 3 day. Background: In ATP-based viability assays light output follows the ATP content of the culture.
The test system of series [2] is Mycobacterium tuberculosis. The series can be described thus: Antitubercular activity against Mycobacterium tuberculosis H37Rv assessed as inhibition of bacterial growth incubated for 7 days by Microdilution Alamar Blue assay. The settings on record: 168 h, time 7 day. It is filed as functional. For orientation: Dilution methods test growth across graded concentrations, often in twofold steps.

A short description of series [3]: Cytotoxicity against human HepG2 cells assessed as reduction in cell viability measured after 3 days by CellTiterGlo Luminescent assay. Format: toxicity, cell-based. The settings on record: time 3 day.
Series [4] is described as follows: Plasma concentration in mouse at 20 mg/kg, po measured after 8 hrs. Format: ADME, organism-based.
Series [5] in a line: Drug uptake in mouse lungs at 20 mg/kg, po measured after 8 hrs. It is filed as ADME, organism-based. The settings on record: lung, read-out: Drug uptake.

≈ marks a conversion by molar mass, not a printed value. Bounds are passed on as bounds.

As usually defined, the CC50 is the concentration at which the toxic effect on the cells reaches its halfway point. As a reminder, the MIC is the lowest concentration that inhibits growth of the organism. Take `CN(C)c1ncn(-c2cc(F)c(COc3ccc(OS(=O)(=O)F)cc3)c(F)c2)n1`: the CC50 at 72 h in series [1] and in series [3] was over 40 µM throughout. In series [2], the MIC was determined as 0.31 µM (≈ 0.133 µg/mL).
For the molecule `CS(=O)(=O)Nc1ncn(-c2cc(F)c(COc3ccc(OS(=O)(=O)F)cc3)c(F)c2)n1`, the concentration at 8 h in series [4] was found to be 2120 ng/mL; in series [5] it was 1600 ng/mL.
In the case of `O=S(=O)(F)Oc1ccc(OCc2c(F)cc(-n3cnnc3)cc2F)cc1`, the CC50 at 72 h in series [1] and in series [3] was over 40 µM each time. Also, the MIC in series [2] is 0.22 µM (≈ 0.0848 µg/mL).

The record behind these values is ChEMBL document CHEMBL5357000, “Synthesis and structure-activity relationships of aryl fluorosulfate-based inhibitors as novel antitubercular agents” (Bioorg Med Chem Lett, 2024).
